From publication PMC5813964, “The enzymatic processing of α-dystroglycan by MMP-2 is controlled by two anchoring sites distinct from the active site” (PLoS ONE, 2018)
One block for each molecule: values may come before it. No end group written: not given here.

Experiments:
[1] = biological target: T1, whole MMP-2 (Homo sapiens, UniProt P08253); assay: MMP-2 proteolysis of fluorogenic peptide, modulation by α-DG C-term peptide; type: biochemical; details: global fit Eqs 1-3
T1 construct: purchased R&D System, London, UK
T1 sequence (P08253 110-660): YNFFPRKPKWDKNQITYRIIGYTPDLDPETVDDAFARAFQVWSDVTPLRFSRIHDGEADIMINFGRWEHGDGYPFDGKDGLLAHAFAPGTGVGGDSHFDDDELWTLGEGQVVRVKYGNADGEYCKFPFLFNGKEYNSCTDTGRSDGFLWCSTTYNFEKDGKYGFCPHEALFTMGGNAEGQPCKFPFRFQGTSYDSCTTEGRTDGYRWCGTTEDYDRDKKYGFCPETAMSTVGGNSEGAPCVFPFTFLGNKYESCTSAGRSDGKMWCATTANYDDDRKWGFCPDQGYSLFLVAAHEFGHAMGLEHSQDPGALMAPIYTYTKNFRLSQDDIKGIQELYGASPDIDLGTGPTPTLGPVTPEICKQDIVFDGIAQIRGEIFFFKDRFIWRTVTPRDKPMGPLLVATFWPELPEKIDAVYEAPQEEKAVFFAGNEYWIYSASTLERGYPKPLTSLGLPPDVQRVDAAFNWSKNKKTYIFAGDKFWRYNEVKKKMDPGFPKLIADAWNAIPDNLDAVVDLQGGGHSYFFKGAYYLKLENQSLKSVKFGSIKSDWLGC
Experimental: (§1) Human MMP-2 proenzyme 2 was activated by incubating 0.1 mg/ml progelatinase solution with 0.25 mM aminophenyl mercuric acid (Sigma, St. Louis, MO, USA) at 37°C for 30 minutes. Whereas human recombinant cdMMP-2 human was dissolved in a solution of 50 mM Tris/HCl (pH 7.2), 0.1M NaCl and 10 mMCaCl. […] All measurements were performed at 37°C using a solution of 50 mM Tris–HCl, 0.1 M NaCl, 10 mM CaCl2 and 0.05% Brij 35 buffered at pH 7.3.
(§2) Different concentrations of the α-DG peptide (i.e., final concentration range spanning between 0 μM and 4 μM) were incubated with 0.07 μM active MMP-2 for 30 min at 37°C to allow the interaction to occur. In the case of the cdMMP2 the kinetics were performed employing 0.06 μM cdMMP-2 at different concentration of α-DG (613–651) peptide in the range 0–2 μM. Different concentrations of MCA fluorogenic peptide (i.e: from […]) were then added to this solution. The enzymatic reaction was recorded for 30 minutes at 37°C. The initial velocities were derived from the slopes within the first 15 minutes, which is the time period during which the rate is constant and less than 10% of the substrate was degraded. This ensured a steady-state condition for the first cleavage step, and it was a prerequisite for the subsequent analysis steps.
(§3) This behavior, which envisages the presence of (at least) two binding sites for the α-DG (613–651) peptide on the catalytic domain of MMP-2, can be kinetically and thermodynamically described by the scheme reported on Fig 5; where, ^0kcat and ^0Km are the observed catalytic parameters in the absence of the peptide, Ka and Kb are the peptide dissociation constants to the free enzyme for the two binding sites, α is the interaction parameter, which quantifies the effect on Km of the α-DG(613–651) peptide binding to the first binding site (α > 1 indicates a negative effect with a decreased affinity, α < 1 a positive effect and α = 1 no effect), β is the interaction parameter which estimates the effect on kcat of the binding of α-DG(613–651) peptide to the first binding site (β > 1 indicates a positive effect with an increased rate constant, β < 1 a negative effect and β = 1 no effect).
(§4) Data reported in Figs 4 and 5 have been analyzed according to the following equation: [E0]/v=^obsKm/^obskcat⋅1/[S]+1/^obskcat (Eq 1) where [E0] is the total enzyme concentration, ν is the observed velocity (expressed as mol/s), [S] is the substrate concentration, ^obskcat and ^obsKm are the observed catalytic parameters, namely ^obskcat=^0kcat⋅(Ka⋅α+β⋅[Pept])/(Ka⋅α+[Pept]) (Eq 2) and ^obsKm=^0Km⋅α⋅(Ka⋅Kb+Kb⋅[Pept]+[Pept]^2)/Kb⋅(Ka⋅α+[Pept]) (Eq 3) where ^0kcat and ^0Km are the catalytic paramenters in the absence of peptide and all other symbols have the same meaning as described above.

[2] = biological target: T2, cdMMP-2 (isolated catalytic domain of MMP-2) (Homo sapiens, UniProt P08253); assay: cdMMP-2 proteolysis of fluorogenic peptide, modulation by α-DG C-term peptide; type: biochemical; details: pH 7.3, 37°C, global fit Eqs 1-3
T2 construct: the catalytic domain of MMP-2 (without the hemopexin-like domain) retains the capability of degrading; purchased Biomol International
Experimental: as §1, §2, §3, §4

[3] = biological target: human recombinant MMP-2 (whole enzyme, activated) (human)
[4] = biological target: human recombinant catalytic domain of MMP-2 (cdMMP-2) (human)
[5] = biological target: human recombinant MMP-2 (whole enzyme, activated) (human); assay: enzyme inhibition kinetics (fluorogenic substrate); peptide (0-4 μM with 0.07 μM active MMP-2; 0-2 μM with 0.06 μM cdMMP-2) incubated with the enzyme 30 min at 37°C, then MCA-Pro-Leu-Gly-Leu-DPA-Ala-Arg-NH2 added; initial velocities, global fit of Lineweaver-Burk data to a scheme with two peptide binding sites (Eqs 1-3); 50 mM Tris-HCl, 0.1 M NaCl, 10 mM CaCl2, 0.05% Brij 35, pH 7.3, 37°C
[6] = biological target: human recombinant catalytic domain of MMP-2 (cdMMP-2) (human); assay: as above

^0kcat ([1]; whole MMP-2, absence of peptide, MCA-Pro-Leu-Gly-Leu-DPA-Ala-Arg-NH2 substrate, pH 7.3, 37°C, 50 mM Tris–HCl, 0.1 M NaCl, 10 mM CaCl2, 0.05% Brij 35, λexc 325 nm, λem 398 nm): 29.6 ± 4.5 s⁻¹
^0Km ([1]; whole MMP-2, absence of peptide, pH 7.3, 37°C): 1.5(±0.3)×10^−6 M
^0Km ([2]; cd-MMP-2, absence of peptide): 1.9(±0.5)×10^−6 M
^0kcat ([2]; cd-MMP-2, absence of peptide): 26.1 ± 4.1 s⁻¹
Molecule: MCA-Pro-Leu-Gly-Leu-DPA-Ala-Arg-NH2 [fluorogenic substrate, reference compound]

Kd ([1]; whole MMP-2, fluorogenic substrate, peptide 0-4 μM, 30 min preincubation at 37°C, pH 7.3, read-out: Ka (peptide dissociation constant to the free enzyme, first, high affinity non-competitive site)): 35 nM
Kb ([1]; whole MMP-2, fluorogenic substrate, peptide 0-4 μM, 30 min preincubation at 37°C, pH 7.3, read-out: Kb (peptide dissociation constant to the free enzyme, second, lower affinity competitive active site)): 210 nM
Kd ([2]; cd-MMP-2, fluorogenic substrate, peptide 0–2 μM, read-out: Ka (peptide dissociation constant to the free enzyme, first, high affinity non-competitive site)): 35 nM
Kb ([2]; cd-MMP-2, fluorogenic substrate, peptide 0–2 μM, read-out: Kb (peptide dissociation constant to the free enzyme, second, lower affinity competitive active site)): 210 nM
Molecule: VGDPALVLNDIHKKIALVKKLAFAFGDRNCSTITLQNIT [α-DG (613–651) peptide]

interaction parameter α (effect of peptide at the first site on Km of the fluorogenic substrate) [3]: 1.7
interaction parameter β (effect of peptide at the first site on kcat for the fluorogenic substrate) [3]: 0.27
interaction parameter β (effect of peptide at the first site on kcat for the fluorogenic substrate) [4]: 0.32
Ka (dissociation constant, first site, higher affinity, non-competitive) [5]: 35 nM
Kb (dissociation constant, second site, lower affinity, competitive) [5]: 210 nM
Ka (dissociation constant, first site, higher affinity, non-competitive) [6]: 35 nM
Kb (dissociation constant, second site, lower affinity, competitive) [6]: 210 nM
Molecule: VGDPALVLNDIHKKIALVKKLAFAFGDRNCSTITLQNIT [human α-DG (613–651) peptide]
